Results reported in patent publication US20140081025A1, “HETEROAROMATIC RING DERIVATIVE” (TAISHO PHARMACEUTICAL CO., LTD., priority 2011, published 2014).
pIC50: −log10 of the molar value.

What was measured:
[1] = biological target: T1, human orexin 1 receptor (hOX1R) (Homo sapiens, UniProt O43613); assay: Measurement of orexin antagonist activity (intracellular Ca2+ fluorescence, FDSS) in CHO cells expressing hOX1R; type: cell-based; details: CHO cells forcibly expressing hOX1R; ligand (two-amino-acid-substituted human orexin-A) 300 pM; Fluo 4-AM; read-out: IC50 value OX1
T1 construct: expressed in transfected cells; host or cells: Chinese hamster ovary (CHO) cells
T1 sequence (O43613 1-425): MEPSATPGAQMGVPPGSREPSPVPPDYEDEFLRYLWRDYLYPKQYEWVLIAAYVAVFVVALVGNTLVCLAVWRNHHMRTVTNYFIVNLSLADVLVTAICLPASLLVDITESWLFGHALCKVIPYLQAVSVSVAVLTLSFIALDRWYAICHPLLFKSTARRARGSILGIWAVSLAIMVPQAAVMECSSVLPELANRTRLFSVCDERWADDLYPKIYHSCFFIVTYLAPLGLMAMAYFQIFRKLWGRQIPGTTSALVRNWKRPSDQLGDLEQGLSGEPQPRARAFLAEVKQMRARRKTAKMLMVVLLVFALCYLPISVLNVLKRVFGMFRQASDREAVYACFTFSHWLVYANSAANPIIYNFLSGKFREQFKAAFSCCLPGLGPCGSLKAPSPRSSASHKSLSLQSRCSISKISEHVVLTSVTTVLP
Protocol: (§1) The antagonist activity of a test compound against the human orexin 1 receptor (hOX1R) or orexin 2 receptor (hOX2R) was measured by the method described in the document (Toshikatsu Okumura et al., Biochemical and Biophysical Research Communications, 280, 976-981, 2001) with appropriate modification. Chinese hamster ovary (CHO) cells forcibly expressing hOX1R or hOX2R were seeded into each well of a 96-well Black clear bottom plate (Nunc A/S) in the amount of 20000 cells per well and were cultured in a Ham's F-12 medium (Invitrogen, Inc.) containing 0.1 mM MEM non-essential amino acids (Invitrogen, Inc.), 0.5 mg/mL G418 (Invitrogen, Inc.), and 10% fetal calf serum (Invitrogen, Inc.) at 37° C. in 5% CO2 for 16 hours. The medium was removed, and then added to each well was 100 μL of an assay buffer (pH 7.4) containing 0.5 μM Fluo 4-AM ester (Dojindo Laboratories), wherein the buffer was composed of 25 mM HEPES (Dojindo Laboratories), a Hanks' balanced salt solution (Invitrogen, Inc.), 0.1% bovine serum albumin (Sigma-Aldrich Co., LLC.), 2.5 mM probenecid (Sigma-Aldrich Co., LLC.), and 200 μg/mL Amaranth (Sigma-Aldrich Co., LLC.), followed by incubation at 37° C. in 5% CO2 for 60 min. The assay buffer containing Fluo 4-AM ester was removed, and then 150 μL of an assay buffer solution containing 10 mM of the test compound dissolved in dimethyl sulfoxide was added to each well, followed by incubation for 30 min.
(§2) A peptide (Pyr-[…]NH2: Peptide Institute, Inc.), which is a ligand having substitution of two amino acids in human orexin-A, was diluted with an assay buffer to a final concentration of 300 pM for hOX1R and to a final concentration of 3 nM for hOX2R. The reaction was started by adding 50 μL of this ligand solution to each well. The reaction was monitored by measuring the fluorescence of each well at each 1 second for 3 min with a Functional Drug Screening System (FDSS manufactured by Hamamatsu Photonics K.K.), and the antagonist activity was determined based on the maximum fluorescence value as an index of the intracellular Ca^2+ concentration. The antagonist activity of a test compound was calculated by assuming that the fluorescence value of the well containing only a dilution buffer was 100% and that the fluorescence value of the well containing a buffer not containing the ligand or any test compound was 0%. The 50% inhibitory concentration (IC50 value) of a test compound was determined from fluorescence values at various concentrations of the test compound.

[2] = biological target: T2, human orexin 2 receptor (hOX2R) (Homo sapiens, UniProt O43614); assay: Measurement of orexin antagonist activity (intracellular Ca2+ fluorescence, FDSS) in CHO cells expressing hOX2R; type: cell-based; details: CHO cells forcibly expressing hOX2R; ligand (two-amino-acid-substituted human orexin-A) 3 nM; Fluo 4-AM; read-out: IC50 value OX2
T2 construct: expressed in transfected cells; host or cells: Chinese hamster ovary (CHO) cells
T2 sequence (O43614 1-444): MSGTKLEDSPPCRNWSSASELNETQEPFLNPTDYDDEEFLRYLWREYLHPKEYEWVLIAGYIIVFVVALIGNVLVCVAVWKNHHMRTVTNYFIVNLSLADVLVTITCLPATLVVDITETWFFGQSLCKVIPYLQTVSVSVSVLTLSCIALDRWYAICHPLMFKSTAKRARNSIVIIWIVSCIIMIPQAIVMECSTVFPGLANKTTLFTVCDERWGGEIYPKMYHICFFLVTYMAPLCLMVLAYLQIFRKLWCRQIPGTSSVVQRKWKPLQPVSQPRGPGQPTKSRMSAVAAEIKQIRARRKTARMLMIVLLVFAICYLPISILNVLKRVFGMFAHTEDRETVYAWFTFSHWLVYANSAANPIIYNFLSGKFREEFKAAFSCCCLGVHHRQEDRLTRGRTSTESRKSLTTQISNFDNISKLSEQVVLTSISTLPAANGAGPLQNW
Protocol: as §1, §2

Structure (SMILES) | pIC50 [1] | pIC50 [2]
Cc1ccc(-n2nccn2)c(C(=O)N(C)CCc2cc(-c3ccc(F)cn3)on2)c1 [Example 9, N-{2-[5-(5-Fluoropyridin-2-yl)-1,2-oxazol-3-yl]ethyl}-N,5-dimethyl-2-(2H-1,2,3-triazol-2-yl)benzamide] | 7.78 | 7.11
CCN(CCc1ccn(-c2cc(C(F)(F)F)ccn2)n1)C(=O)c1ccccc1-n1nccn1 [Example 26, N-ethyl-2-(2H-1,2,3-triazol-2-yl)-N-{2-{1-[4-(trifluoromethyl)pyridin-2-yl]-1H-pyrazol-3-yl}ethyl}benzamide] | 7.21 | 6.42
CN(CCc1noc(-c2ccc(F)c(F)c2)n1)C(=O)c1ccccc1-n1nccn1 [Example 32, N-{2-[5-(3,4-difluorophenyl)-1,2,4-oxadiazol-3-yl]ethyl}-N-methyl-2-(2H-1,2,3-triazol-2-yl) benzamide] | 7.83 | 6.87
CCN(CCc1ccn(-c2cccc(C)n2)n1)C(=O)c1cc(F)ccc1-c1ncccn1 [Example 28, N-ethyl-5-fluoro-N-{2-[1-(6-methylpyridin-2-yl)-1H-pyrazol-3-yl]ethyl}-2-(pyrimidin-2-yl) benzamide] | 8.09 | 7.09
CN(CCc1ccn(-c2ccc(F)cn2)n1)C(=O)c1cc(F)ccc1-n1nccn1 [Example 15, 5-Fluoro-N-{2-[1-(5-fluoropyridin-2-yl)-1H-pyrazol-3-yl]ethyl}-N-methyl-2-(2H-1,2,3-triazol-2-yl)benzamide] | 7.84 | 6.72
Cc1ccc(-n2nccn2)c(C(=O)N(C)CCc2noc(-c3ccc(F)cc3)n2)c1 [Example 35, N-{2-[5-(4-fluorophenyl)-1,2,4-oxadiazol-3-yl]ethyl}-N,5-dimethyl-2-(2H-1,2,3-triazol-2-yl) benzamide] | 8.62 | 7.86
CCN(CCc1ccn(-c2ccc(F)cc2)n1)C(=O)c1ccccc1-n1nccn1 [Example 22, N-Ethyl-N-{2-[1-(4-fluorophenyl)-1H-pyrazol-3-yl]ethyl}-2-(2H-1,2,3-triazol-2-yl)benzamide] | 8.66 | 7.97
CCN(CCc1ccn(-c2ccc(F)cn2)n1)C(=O)c1cc(C)ccc1-c1ncccn1 [Example 6, N-Ethyl-N-{2-[1-(5-fluoropyridin-2-yl)-1H-pyrazol-3-yl]ethyl}-5-methyl-2-(pyrimidin-2-yl)benzamide] | 8.15 | 7.86
CCN(CCc1cnn(-c2ccc(F)cn2)c1)C(=O)c1ccccc1-n1nccn1 [Example 3, N-Ethyl-N-{2-[1-(5-fluoropyridin-2-yl)-1H-pyrazol-4-yl]ethyl}-2-(2H-1,2,3-triazol-2-yl)benzamide] | 8.38 | 7.22
CCN(CCc1ccn(-c2ccc(F)cn2)n1)C(=O)c1cc(F)ccc1-n1nccn1 [Example 7, N-Ethyl-N-{2-[1-(5-fluoropyridin-2-yl)-1H-pyrazol-3-yl]ethyl}-5-fluoro-2-(2H-1,2,3-triazol-2-yl)benzamide] | 7.96 | 7.60
CCN(CCc1ccn(-c2ccc(F)cc2)n1)C(=O)c1ccccc1-c1ncccn1 [Example 30, N-ethyl-N-{2-[1-(4-fluorophenyl)-1H-pyrazol-3-yl]ethyl}-2-(pyrimidine-2-yl)benzamide] | 8.72 | 7.88
CCN(CCc1ccn(-c2ccc(F)cn2)n1)C(=O)c1c(F)cccc1-c1ncccn1 [Example 21, N-ethyl-2-fluoro-N-{2-[1-(5-fluoropyridin-2-yl)-1H-pyrazol-3-yl]ethyl}-6-(pyrimidin-2-yl) benzamide] | 7.94 | 7.29
CCN(CCc1noc(-c2ccc(F)cn2)n1)C(=O)c1cc(C)ccc1-n1nccn1 [Example 12, N-Ethyl-N-{2-[5-(5-fluoropyridin-2-yl)-1,2,4-oxadiazol-3-yl]ethyl}-5-methyl-2-(2H-1,2,3-triazol-2-yl)benzamide] | 8.72 | 7.94
CN(CCc1ccn(-c2ccc(F)cn2)n1)C(=O)c1ccccc1-n1nccn1 [Example 14, N-{2-[1-(5-Fluoropyridin-2-yl)-1H-pyrazol-3-yl]ethyl}-N-methyl-2-(2H-1,2,3-triazol-2-yl)benzamide] | 8.00 | 6.88

Compounds with a higher pIC50 [1], results first:

pIC50 [1] | pIC50 [2] | Structure (SMILES)
8.74 | 7.67 | CCN(CCc1cc(-c2ccc(F)cn2)on1)C(=O)c1cc(C)ccc1-n1nccn1 [Example 10, N-Ethyl-N-{2-[5-(5-fluoropyridin-2-yl)-1,2-oxazol-3-yl]ethyl}-5-methyl-2-(2H-1,2,3-triazol-2-yl)benzamide]
8.74 | 8.28 | CCN(CCc1cnn(-c2ccc(F)cn2)c1)C(=O)c1cc(C)ccc1-n1nccn1 [Example 1, N-Ethyl-N-{2-[1-(5-fluoropyridin-2-yl)-1H-pyrazol-4-yl]ethyl}-5-methyl-2-(2H-1,2,3-triazol-2-yl)benzamide]
8.74 | 8.42 | CCN(CCc1ccn(-c2ccc(F)cn2)n1)C(=O)c1cc(C)ccc1-n1nccn1 [Example 8, N-Ethyl-N-{2-[1-(5-fluoropyridin-2-yl)-1H-pyrazol-3-yl]ethyl}-5-methyl-2-(2H-1,2,3-triazol-2-yl)benzamide]
8.77 | 7.88 | CCN(CCc1ccn(-c2ccc(F)cn2)n1)C(=O)c1cc(F)ccc1-c1ncccn1 [Example 20, N-ethyl-5-fluoro-N-{2-[1-(5-fluoropyridin-2-yl)-1H-pyrazol-3-yl]ethyl}-2-(pyrimidin-2-yl) benzamide]
8.80 | 8.20 | CCN(CCc1ccn(-c2ccc(F)cn2)n1)C(=O)c1c(F)cccc1-n1nccn1 [Example 18, N-ethyl-2-fluoro-N-{2-[1-(5-fluoropyridin-2-yl)-1H-pyrazol-3-yl]ethyl}-2-(2H-1,2,3-triazol-2-yl) benzamide]
8.92 | 8.21 | CCN(CCc1noc(-c2ccc(F)cc2)n1)C(=O)c1cc(C)ccc1-n1nccn1 [Example 38, N-Ethyl-N-{2-[5-(4-fluorophenyl)-1,2,4-oxadiazol-3-yl]ethyl}-5-methyl-2-(2H-1,2,3-triazol-2-yl)benzamide]
8.96 | 7.74 | CCN(CCc1ccn(-c2ccc(F)cc2)n1)C(=O)c1cc(F)ccc1-c1ncccn1 [Example 27, N-ethyl-5-fluoro-N-{2-[1-(4-fluorophenyl)-1H-pyrazol-3-yl]ethyl}-2-(pyrimidin-2-yl) benzamide]
9.05 | 8.13 | CCN(CCc1ccn(-c2ccc(F)cn2)n1)C(=O)c1ccccc1-c1ncccn1 [Example 19, N-ethyl-N-{2-[1-(5-fluoropyridin-2-yl)-1H-pyrazol-3-yl]ethyl}-2-(pyrimidin-2-yl) benzamide]
9.15 | 7.76 | CCN(CCc1noc(-c2ccc(F)cc2)n1)C(=O)c1cc(C)ccc1-c1ncccn1 [Example 39, N-ethyl-N-{2-[5-(4-fluorophenyl)-1,2,4-oxadiazol-3-yl]ethyl}-5-methyl-2-(pyrimidin-2-yl)benzamide]
